Experimental data from patent publication US20240173389A1, “Compositions and Methods For Reducing Immune Intolerance” (LAPIX THERAPEUTICS, INC., priority 2021, published 2024).
Entries after “also recorded” stand apart in the source; their conditions may differ.

Assays:
B57BL6 Mice = experiment: Anti-GAA titer analysis in mice given GAA with OPLT or liposomal OBLT, then GAA re-challenge (Example 2); assay type: in vivo
Description: OPLT and OBLT were dissolved in sterile PBS, and pH was adjusted to approximately 7.5. Liposomal OBLT was prepared using DMPC. GAA in PBS was used as a control. For the tolerance induction (or treatment) period, GAA was co-mixed with OPLT or liposomal OBLT, or diluted in PBS before administration as per group assignment for each animal. For the re-challenge protocol, GAA was administered IV alone to all animals regardless of group assignment. GAA was administered with 5 mg of OPLT SC QW. […] For all SC groups, GAA was dosed at 1 μg/injection (1 μg/week). For PO groups, GAA was dosed at 0.14 μg/dose QD (approximately 1 μg/week).
The objective of the treatment phase was to test the ability of OPLT or liposomal OBLT to reduce the immunogenicity of GAA, as an antigen, compared to animals administered GAA alone. Animals were injected with GAA, GAA+OPLT, or GAA+liposomal OBTL SC QW for 4 weeks. Blood samples were collected for anti-GAA analysis after a one-week washout period from the last dose. For oral tolerance, animals were administered GAA or GAA+liposomal OBLT PO, QD for 4 weeks. GAA was also administered SC QW to both groups during the treatment period. Blood samples were collected for anti-GAA titer analysis after a one-week washout period from the last dose.
The objective of the re-challenge phase of the study was to evaluate the duration of tolerance. […] After the washout period, animals were injected with (1 μg) GAA SC QW for 2 weeks. Blood samples were collected one week after each injection for anti-GAA titer analysis.

Splenocytes = experiment: Splenocyte culture with anti-CD3/anti-CD28 without antigen, Foxp3+/CD4+ by flow cytometry (Example 4); assay type: cell-based; conditions: 100 μM, three days, anti-CD3/anti-CD28, absence of any antigen
Description: Splenocytes were cultured for three days in presence of anti-CD3/anti-CD28 in presence of 100 μM PS or 100 μM OPLT in absence of any antigen.

[1] = tested on: RAW264.7 mouse monocyte macrophage cells; experiment: SAR screen in RAW 264.7 cells with FVIII antigen, TNF-α ELISA (Example 5); assay type: cell-based; conditions: free compounds dosed in mM range, FVIII antigen
Excerpt: (§1) RAW264.7 mouse monocyte macrophage cells were exposed to an increasing concentration of selected compounds in the presence of human plasma-derived FVIII as a model antigen protein. TNF-α and TGF-β production were monitored.
All molecules were formulated in RPMI media in aseptic conditions. The pH was adjusted to approximately 7.5 before dosing cells. 1,2-dimyristoyl-sn-glycero-3-phosphocholine (DM PC):PS liposomes were made at 70:30 molar ratio to make “PS” liposomes.
(§2) RAW 264.7 cells were prepared, cultured, and dosed. Cells were seeded at 4×10^5 cells/well. OPLS, OPLT and L-homocysteic acid (LHA) were dosed at 100, 85, 70, 60, 50, 30, 10, 3, 1, 0.3, 0.1, 0.03 and 0.01 mM, or at 100, 85, 70, 60, 50, 30, 10, 3 and 1 mM, as indicated. O-Benzyl-L-serine (OBLS), S-phenyl-L-cysteine (SPLC), S-benzyl-L-cysteine (SBLC) and OBLT were dosed at 100, 85, 70, 60, 50, 30, 10, 3, 1, 0.3, 0.1, 0.03, 0.01, 0.003 and 0.001 μM. Finally, 100 μl of 40 μg/ml of FVIII as a sample antigen was added to each cell. LPS and free protein were used as positive and baseline controls, respectively. TNF-α and TGF-β ELISA were conducted as per the manufacturer's instructions (R & D Systems).

[2] = tested on: RAW264.7 mouse monocyte macrophage cells; experiment: SAR screen in RAW 264.7 cells with FVIII antigen, TGF-β ELISA (Example 5); assay type: cell-based; conditions: free compounds dosed in mM range
Excerpt: as §1
All molecules were formulated in RPMI media in aseptic conditions. The pH was adjusted to approximately 7.5 before dosing cells. 1,2-dimyristoyl-sn-glycero-3-phosphocholine (DM PC):PS liposomes were made at 70:30 molar ratio to make “PS” liposomes. The remaining liposomes were made by hydrating a DMPC lipid layer in PBS buffer containing a test compound to give a final molar ratio of 70:30 of DMPC:test compound.
as §2

TLR2 = experiment: TNF-α production by splenocytes in response to TLR2 ligand PGN; assay type: cell-based, C57BL/6 mice; conditions: for TNF-α mean: 48 hours, OPLT 1.85 μg/ml, dexamethasone 100 μg/ml, rapamycin 625 μg/ml
Description: (§3) OPLT was dissolved in sterile PBS at 100 μM, and pH was adjusted to approximately 7.5. Splenocytes from naïve C57BL/6 mice were stained with CFSE, prepared, cultured, and dosed. Cells were seeded at 2×10^5 cells/well.
(§4) To evaluate the effects of OPLT on cytokine production by splenocytes in response to different TLR ligands, splenocytes were incubated with one of the following TLR ligands in triplicate: PGN, LPS, ODN CPG, dsRNA, or ssRNA, as per group assignment. Cells were then treated as follows: • Control: No treatment; • OPLT: Cells were dosed with 1.85 μg/ml; • Dexamethasone: Cells were dosed with 100 μg/ml; • Rapamycin: Cells were dosed with 625 μg/ml. Cells were incubated for 48 hours before collecting the supernatant for TNF-α analysis.
(§5) The supernatant was collected for TNF-α analysis by ELISA.

TLR7 = experiment: TNF-α production by splenocytes in response to TLR7 ligand ssPolyU; assay type: cell-based, C57BL/6 mice; conditions: for TNF-α mean: 48 hours, OPLT 1.85 μg/ml, dexamethasone 100 μg/ml, rapamycin 625 μg/ml
Description: as §3, §4, §5

How did the “animals that developed anti-GAA titers” value (B57BL6 Mice; SC QW 4 weeks, 5 mg OPLT + GAA 1 μg, after one-week washout, controls 6/6) turn out when `N[C@@H](Cc1ccc(OP(=O)(O)O)cc1)C(=O)O` [OPLT, O-phospho-L-tyrosine] was run?
Its value is 4/6.

And the “anti-GAA titers versus control groups” value (B57BL6 Mice; SC QW 4 weeks, OPLT 5 mg, liposomal OBLT 50 μM (1.3 μg OBLT/injection), after one-week washout)?
Its value is “statistically lower than the controls and comparators”.

What about the “immune response to GAA re-challenge” value (B57BL6 Mice; SC treatment group, weeks 1 and 2 of re-challenge, statistically significant at week 2 only) of the same compound?
The value was “did not develop a robust immune response”.

What about the “increase in Foxp3+/CD4+ compared to control” value (Splenocytes) of the same compound?
The value was 118%.

What about the “TNF-α production (suppression) versus OPLS” value [1] of the same compound?
The value was “suppressed TNF-α production at a lower dose than OPLS; also recorded: more potent inhibitors of TNF-α”.

What about the “TGF-β production versus OPLS” value [2] of the same compound?
Its value is “mimicked that of OPLS; also recorded: more potent inducers of TGF-β”.

And the TNF-α mean (TLR2; PGN 0 ng/ml)?
Its TNF-α mean is 0 pg/mL.

What about the TNF-α mean (TLR2; PGN 1 ng/ml, CTL 730) of the same compound?
The TNF-α mean was 445 pg/mL.

And the TNF-α mean (TLR2; PGN 10 ng/ml, CTL 725)?
Its TNF-α mean is 613 pg/mL.

And the TNF-α mean (TLR2; PGN 100 ng/ml, CTL 834)?
Its TNF-α mean is 827 pg/mL.

And the “effect on splenocytes' TNF-α response to the TLR2 ligand PGN (in words)” value (TLR2; PGN 1, 10, 100 ng/ml, compared to control)?
The value was “statistically significant reduction in TNF-α in the low PGN dose group (1 ng/ml), but not the mid or high PGN dose group”.

What about the TNF-α mean (TLR7; Poly U 0 ng/ml) of the same compound?
The TNF-α mean was 0 pg/mL.

What about the TNF-α mean (TLR7; Poly U 1 ng/ml, CTL 44) of the same compound?
The TNF-α mean was 36 pg/mL.

What about the TNF-α mean (TLR7; Poly U 10 ng/ml, CTL 51) of the same compound?
The TNF-α mean was 40 pg/mL.

What about the TNF-α mean (TLR7; Poly U 100 ng/ml, CTL 229) of the same compound?
Its TNF-α mean is 43 pg/mL.

What about the “effect on splenocytes' TNF-α response to the TLR7 ligand Poly U (in words)” value (TLR7; high dose of Poly U, statistically significant) of the same compound?
Its value is “reduced splenocytes' response to a high dose of the TLR7 ligand Poly U”.
